Assay results reported in publication PMC5218480 (PLoS ONE, 2017).

Test system: MV-4-11 cells
Test: Gene expression microarray analysis (Affymetrix PrimeView) and GSEA
Assay type: cell-based, human
Design: RFU PODN (11730768_x_at) / Fold change /veh PODN (11730768_x_at) / RFU LINC00158 (11744669_a_at) / Fold change /veh LINC00158 (11744669_a_at) / RFU DUSP10 (11751237_a_at) / Fold change /veh DUSP10 (11751237_a_at) / RFU ID3 (11757404_x_at) / Fold change /veh ID3 (11757404_x_at) / RFU PLEKHG5 (11737974_s_at) / Fold change /veh PLEKHG5 (11737974_s_at) / RFU LRRC4B (11730491_at) / Fold change /veh LRRC4B (11730491_at) / RFU GIMAP4 (11747438_a_at) / Fold change /veh GIMAP4 (11747438_a_at) / RFU KRT8 (11758183_x_at) / Fold change /veh KRT8 (11758183_x_at) / RFU CNN1 (11734310_a_at) / Fold change /veh CNN1 (11734310_a_at) / RFU VPS37D (11726825_at) / Fold change /veh VPS37D (11726825_at) / RFU C10orf10 (11716522_x_at) / Fold change /veh C10orf10 (11716522_x_at) / RFU KIR2DL2 /// KIR2DL4 /// KIR2DL5A /// KIR2DL5B /// KIR2DS1 /// KIR2DS2 /// KIR2DS3 /// KIR2DS4 /// KIR3DL3 /// KIR3DL3 /// KIR3DS1 (11738374_at) / Fold change /veh KIR2DL2 /// KIR2DL4 /// KIR2DL5A /// KIR2DL5B /// KIR2DS1 /// KIR2DS2 /// KIR2DS3 /// KIR2DS4 /// KIR3DL3 /// KIR3DL3 /// KIR3DS1 (11738374_at) / RFU C1QL1 (11718748_at) / Fold change /veh C1QL1 (11718748_at) / RFU TMPRSS4 (11747572_a_at) / Fold change /veh TMPRSS4 (11747572_a_at) / RFU HAMP (11756126_x_at) / Fold change /veh HAMP (11756126_x_at) / RFU RNFT2 (11725882_a_at) / Fold change /veh RNFT2 (11725882_a_at) / RFU NR4A2 (11747474_a_at) / Fold change /veh NR4A2 (11747474_a_at) / RFU ABCC12 (11746883_a_at) / Fold change /veh ABCC12 (11746883_a_at) / RFU TMEM136 (11760407_x_at) / Fold change /veh TMEM136 (11760407_x_at) / RFU CLDN22 /// WWC2 (11732394_at) / Fold change /veh CLDN22 /// WWC2 (11732394_at) / RFU HLA-DPB1 (11760878_x_at) / Fold change /veh HLA-DPB1 (11760878_x_at) / RFU SPINT1 (11716480_a_at) / Fold change /veh SPINT1 (11716480_a_at) / RFU GAP43 (11754022_s_at) / Fold change /veh GAP43 (11754022_s_at) / RFU A4GNT (11735810_at) / Fold change /veh A4GNT (11735810_at) / RFU PRB3 (11715151_x_at) / Fold change /veh PRB3 (11715151_x_at) / RFU TUBB4B (11761932_at) / Fold change /veh TUBB4B (11761932_at) / RFU CAPN14 (11732068_a_at) / Fold change /veh CAPN14 (11732068_a_at) / RFU TMCC2 (11721928_a_at) / Fold change /veh TMCC2 (11721928_a_at) / RFU IRGQ (11745062_a_at) / Fold change /veh IRGQ (11745062_a_at) / RFU FAM174B (11720279_a_at) / Fold change /veh FAM174B (11720279_a_at) / RFU TMPRSS4 (11748680_a_at) / Fold change /veh TMPRSS4 (11748680_a_at) / RFU FAM212B (11763350_a_at) / Fold change /veh FAM212B (11763350_a_at) / RFU PLEKHG5 (11743358_a_at) / Fold change /veh PLEKHG5 (11743358_a_at) / RFU ZSCAN30 (11745921_a_at) / Fold change /veh ZSCAN30 (11745921_a_at) / RFU CMKLR1 (11741424_a_at) / Fold change /veh CMKLR1 (11741424_a_at) / RFU LOC101060620 /// MAPK8IP1 (11723275_at) / Fold change /veh LOC101060620 /// MAPK8IP1 (11723275_at) / RFU SPTSSB (11747773_x_at) / Fold change /veh SPTSSB (11747773_x_at) / RFU PRSS12 (11739890_at) / Fold change /veh PRSS12 (11739890_at) / RFU BIN1 (11741810_x_at) / Fold change /veh BIN1 (11741810_x_at) / RFU WNT11 (11732464_a_at) / Fold change /veh WNT11 (11732464_a_at) / RFU C10orf10 (11716521_a_at) / Fold change /veh C10orf10 (11716521_a_at) / RFU C5orf56 (11738089_at) / Fold change /veh C5orf56 (11738089_at) / RFU CYB561 (11721691_x_at) / Fold change /veh CYB561 (11721691_x_at) / RFU ANKRD19P (11752326_a_at) / Fold change /veh ANKRD19P (11752326_a_at) / RFU OR2T12 /// OR2T33 /// OR2T8 (11738714_s_at) / Fold change /veh OR2T12 /// OR2T33 /// OR2T8 (11738714_s_at) / RFU VCAN (11748164_a_at) / Fold change /veh VCAN (11748164_a_at) / RFU JSRP1 (11732532_at) / Fold change /veh JSRP1 (11732532_at) / RFU KRTAP10-11 (11738290_x_at) / Fold change /veh KRTAP10-11 (11738290_x_at) / RFU MYO3A (11730013_a_at) / Fold change /veh MYO3A (11730013_a_at) / RFU EBF3 (11725865_a_at) / Fold change /veh EBF3 (11725865_a_at) / RFU CAMK2N1 (11719241_x_at) / Fold change /veh CAMK2N1 (11719241_x_at) / RFU C5orf56 (11738088_a_at) / Fold change /veh C5orf56 (11738088_a_at) / RFU OLFML3 (11715873_a_at) / Fold change /veh OLFML3 (11715873_a_at) / RFU LOC100653217 /// NTM (11731650_a_at) / Fold change /veh LOC100653217 /// NTM (11731650_a_at) / RFU MAPK11 (11762145_a_at) / Fold change /veh MAPK11 (11762145_a_at) / RFU FIZ1 (11724087_x_at) / Fold change /veh FIZ1 (11724087_x_at) / RFU OASL (11726364_x_at) / Fold change /veh OASL (11726364_x_at) / RFU SOX15 (11748057_x_at) / Fold change /veh SOX15 (11748057_x_at) / RFU CD79A (11719716_a_at) / Fold change /veh CD79A (11719716_a_at) / RFU HIST1H1D (11736915_at) / Fold change /veh HIST1H1D (11736915_at) / RFU CASKIN2 (11723855_a_at) / Fold change /veh CASKIN2 (11723855_a_at) / RFU LOC730098 (11760151_x_at) / Fold change /veh LOC730098 (11760151_x_at) / RFU OR4N2 (11742367_at) / Fold change /veh OR4N2 (11742367_at) / RFU PRRT2 (11749266_a_at) / Fold change /veh PRRT2 (11749266_a_at) / RFU SNX32 (11753110_a_at) / Fold change /veh SNX32 (11753110_a_at) / RFU CDHR5 (11726645_a_at) / Fold change /veh CDHR5 (11726645_a_at) / RFU RCAN1 (11760418_a_at) / Fold change /veh RCAN1 (11760418_a_at) / RFU FAM167A (11723789_a_at) / Fold change /veh FAM167A (11723789_a_at) / RFU FAM26E (11764081_at) / Fold change /veh FAM26E (11764081_at) / RFU ISYNA1 (11749810_s_at) / Fold change /veh ISYNA1 (11749810_s_at) / RFU ACY1 (11761880_at) / Fold change /veh ACY1 (11761880_at) / RFU 11764098_at / Fold change /veh 11764098_at / RFU SAMD14 (11745864_x_at) / Fold change /veh SAMD14 (11745864_x_at) / RFU NPB (11741838_a_at) / Fold change /veh NPB (11741838_a_at) / RFU TMPRSS6 (11731388_a_at) / Fold change /veh TMPRSS6 (11731388_a_at) / RFU KRTAP10-2 (11738614_at) / Fold change /veh KRTAP10-2 (11738614_at) / RFU ARHGAP8 /// PRR5-ARHGAP8 (11727945_x_at) / Fold change /veh ARHGAP8 /// PRR5-ARHGAP8 (11727945_x_at) / RFU KRTAP5-7 /// NADSYN1 (11734609_at) / Fold change /veh KRTAP5-7 /// NADSYN1 (11734609_at) / RFU RASL12 (11751679_a_at) / Fold change /veh RASL12 (11751679_a_at) / RFU CDKN2B (11736163_a_at) / Fold change /veh CDKN2B (11736163_a_at) / RFU PRF1 (11729649_at) / Fold change /veh PRF1 (11729649_at) / RFU, ZNF638 /// ZNF638-IT1 / Fold change vs veh, ZNF638 /// ZNF638-IT1 / RFU, PANK3 / Fold change vs veh, PANK3 / RFU, SH3YL1 / Fold change vs veh, SH3YL1 / RFU, ZEB2 / Fold change vs veh, ZEB2 / RFU, NRIP1 / Fold change vs veh, NRIP1 / RFU, PTTG1IP / Fold change vs veh, PTTG1IP / RFU, CAPN2 / Fold change vs veh, CAPN2 / RFU, MED14 / Fold change vs veh, MED14 / RFU, SNORA58 / Fold change vs veh, SNORA58 / RFU, C1orf63 / Fold change vs veh, C1orf63 / RFU, LRRFIP1 / Fold change vs veh, LRRFIP1 / RFU, NDUFAF7 / Fold change vs veh, NDUFAF7 / RFU, SLC12A2 / Fold change vs veh, SLC12A2 / RFU, IBTK / Fold change vs veh, IBTK / RFU, ESF1 / Fold change vs veh, ESF1 / Fold change vs veh, TMEM50B / RFU, TAOK1 / Fold change vs veh, TAOK1 / RFU, ACBD3 / Fold change vs veh, ACBD3 / RFU, TMA16 / Fold change vs veh, TMA16 / RFU, RWDD3 / Fold change vs veh, RWDD3 / RFU, BCAT1 / Fold change vs veh, BCAT1 / RFU, EDEM3 / Fold change vs veh, EDEM3 / RFU, TMEM33 / Fold change vs veh, TMEM33 / RFU, WDR75 / Fold change vs veh, WDR75 / RFU, AHCTF1 / Fold change vs veh, AHCTF1 / RFU, TFRC / Fold change vs veh, TFRC / RFU, ZDHHC17 / Fold change vs veh, ZDHHC17 / RFU, NOM1 / Fold change vs veh, NOM1 / RFU, ARL8B / Fold change vs veh, ARL8B / RFU, ZBTB11 / Fold change vs veh, ZBTB11 / RFU, TAMM41 / Fold change vs veh, TAMM41 / RFU, KIAA1704 /// LOC100996395 / Fold change vs veh, KIAA1704 /// LOC100996395 / RFU, ING1 / Fold change vs veh, ING1 / RFU, TRMT61B / Fold change vs veh, TRMT61B / RFU, FUBP3 / Fold change vs veh, FUBP3 / RFU, TP53 / Fold change vs veh, TP53 / RFU, TNKS2 / Fold change vs veh, TNKS2 / RFU, ZFP14 / Fold change vs veh, ZFP14 / RFU, ACTR2 / Fold change vs veh, ACTR2 / RFU, PPP3R1 / Fold change vs veh, PPP3R1 / RFU, PIK3R1 / Fold change vs veh, PIK3R1 / RFU, HNRNPA1 / Fold change vs veh, HNRNPA1 / RFU, RNF170 / Fold change vs veh, RNF170 / RFU, ZNF28 / Fold change vs veh, ZNF28 / RFU, RNGTT / Fold change vs veh, RNGTT / RFU, OGT / Fold change vs veh, OGT / RFU, BRD1 / Fold change vs veh, BRD1 / RFU, MARS / Fold change vs veh, MARS / RFU, ZNF655 / Fold change vs veh, ZNF655 / RFU, FAHD1 / Fold change vs veh, FAHD1 / RFU, BDP1 / Fold change vs veh, BDP1 / RFU, LRRCC1 / Fold change vs veh, LRRCC1 / RFU, ARID1A / Fold change vs veh, ARID1A / RFU, ZNF146 / Fold change vs veh, ZNF146 / RFU, ZNF330 / Fold change vs veh, ZNF330 / RFU, GPN3 / Fold change vs veh, GPN3 / RFU, C9orf123 / Fold change vs veh, C9orf123 / RFU, N4BP2L2 / Fold change vs veh, N4BP2L2 / RFU, ARFIP1 / Fold change vs veh, ARFIP1 / RFU, FAM179B / Fold change vs veh, FAM179B / RFU, BCL10 / Fold change vs veh, BCL10 / RFU, UHRF1BP1L / Fold change vs veh, UHRF1BP1L / RFU, BET1 / Fold change vs veh, BET1 / RFU, CNOT2 / Fold change vs veh, CNOT2 / RFU, ZNF268 / Fold change vs veh, ZNF268 / Fold change vs veh, ZNF507 / RFU, DGCR2 / Fold change vs veh, DGCR2 / RFU, WDSUB1 / Fold change vs veh, WDSUB1 / Fold change vs veh, HSP90B1 /// MIR3652 / RFU, ADSS / Fold change vs veh, ADSS / RFU, GK / Fold change vs veh, GK / RFU, ZNF148 / Fold change vs veh, ZNF148 / RFU, TAF9 / Fold change vs veh, TAF9 / RFU, SLC1A5 / Fold change vs veh, SLC1A5 / RFU, SLMO2 / Fold change vs veh, SLMO2 / RFU, ABCC4 / Fold change vs veh, ABCC4 / RFU, LOC101060439 /// RAP1B / Fold change vs veh, LOC101060439 /// RAP1B / RFU, RFX7 / Fold change vs veh, RFX7 / RFU, GTPBP10 / Fold change vs veh, GTPBP10 / RFU, CNEP1R1 / Fold change vs veh, CNEP1R1 / RFU, BIVM-ERCC5 /// ERCC5 / Fold change vs veh, BIVM-ERCC5 /// ERCC5 / RFU, ILF3 / Fold change vs veh, ILF3 / RFU 11762660_at / Fold change /veh 11762660_at / RFU VCAN (11757783_s_at) / Fold change /veh VCAN (11757783_s_at) / RFU DDX43 (11728927_at) / Fold change /veh DDX43 (11728927_at) / RFU KRT8 (11758188_x_at) / Fold change /veh KRT8 (11758188_x_at) / RFU NKD1 (11759106_at) / Fold change /veh NKD1 (11759106_at) / RFU SRD5A1 (11742802_a_at) / Fold change /veh SRD5A1 (11742802_a_at) / RFU TPSAB1 /// TPSB2 (11721975_s_at) / Fold change /veh TPSAB1 /// TPSB2 (11721975_s_at) / RFU GSTM3 (11746129_a_at) / Fold change /veh GSTM3 (11746129_a_at) / RFU IL23R (11737362_x_at) / Fold change /veh IL23R (11737362_x_at) / RFU TMEM51 (11727254_a_at) / Fold change /veh TMEM51 (11727254_a_at) / RFU PIWIL2 (11732686_x_at) / Fold change /veh PIWIL2 (11732686_x_at) / RFU ORM1 (11744905_x_at) / Fold change /veh ORM1 (11744905_x_at) / RFU CCDC152 (11743942_at) / Fold change /veh CCDC152 (11743942_at) / RFU ECM1 (11717891_a_at) / Fold change /veh ECM1 (11717891_a_at) / RFU IL23R (11748794_a_at) / Fold change /veh IL23R (11748794_a_at) / RFU TNFAIP8L3 (11732012_x_at) / Fold change /veh TNFAIP8L3 (11732012_x_at) / RFU MBOAT4 (11741988_at) / Fold change /veh MBOAT4 (11741988_at) / RFU 11764193_at / Fold change /veh 11764193_at / RFU TMEM53 (11763286_at) / Fold change /veh TMEM53 (11763286_at) / RFU MAGEB2 (11727129_at) / Fold change /veh MAGEB2 (11727129_at) / RFU TMEM200A (11744735_a_at) / Fold change /veh TMEM200A (11744735_a_at) / RFU CCDC152 (11751479_a_at) / Fold change /veh CCDC152 (11751479_a_at) / RFU FAM211A (11726209_a_at) / Fold change /veh FAM211A (11726209_a_at) / RFU RGS16 (11746705_a_at) / Fold change /veh RGS16 (11746705_a_at) / RFU VCAN (11755009_s_at) / Fold change /veh VCAN (11755009_s_at) / RFU RHOB (11743442_s_at) / Fold change /veh RHOB (11743442_s_at) / RFU RGS16 (11720943_a_at) / Fold change /veh RGS16 (11720943_a_at) / RFU RGS16 (11720944_at) / Fold change /veh RGS16 (11720944_at) / RFU, VPS4B / Fold change vs veh, VPS4B / RFU, CREB1 / Fold change vs veh, CREB1 / RFU, DNAJC13 / Fold change vs veh, DNAJC13 / RFU, GNAQ / Fold change vs veh, GNAQ / RFU, CDK5R1 / Fold change vs veh, CDK5R1 / RFU, ZRANB3 / Fold change vs veh, ZRANB3 / RFU, CUL4A / Fold change vs veh, CUL4A / RFU, CCNY / Fold change vs veh, CCNY / RFU, UFL1 / Fold change vs veh, UFL1 / RFU, COG3 / Fold change vs veh, COG3 / RFU, DIAPH2 / Fold change vs veh, DIAPH2 / RFU, SKA2 / Fold change vs veh, SKA2 / RFU, AFF3 / Fold change vs veh, AFF3 / RFU, LMF1 / Fold change vs veh, LMF1 / RFU, IPO11 / Fold change vs veh, IPO11 / RFU, DFFB / Fold change vs veh, DFFB / RFU, FOXP1 / Fold change vs veh, FOXP1 / RFU, CARD8 / Fold change vs veh, CARD8 / RFU, STRN3 / Fold change vs veh, STRN3 / RFU, ADK / Fold change vs veh, ADK / RFU, RASSF2 / Fold change vs veh, RASSF2 / RFU, WIPF1 / Fold change vs veh, WIPF1 / RFU, LARP1B / Fold change vs veh, LARP1B / RFU, RASA1 / Fold change vs veh, RASA1 / RFU, RB1 / Fold change vs veh, RB1 / RFU, PPFIA1 / Fold change vs veh, PPFIA1 / RFU, MAT2A / Fold change vs veh, MAT2A / RFU, CCT5 / Fold change vs veh, CCT5 / RFU, WDR92 / Fold change vs veh, WDR92 / RFU, CUX1 / Fold change vs veh, CUX1 / RFU, TTC7A / Fold change vs veh, TTC7A / RFU, TMEM135 / Fold change vs veh, TMEM135 / RFU, DEPTOR / Fold change vs veh, DEPTOR / RFU, CPM / Fold change vs veh, CPM / RFU, DNAJB6 / Fold change vs veh, DNAJB6 / RFU, CACNA2D3 / Fold change vs veh, CACNA2D3 / RFU, DTX4 / Fold change vs veh, DTX4 / RFU, TFCP2 / Fold change vs veh, TFCP2 / RFU, GMCL1 /// GMCL1P1 / Fold change vs veh, GMCL1 /// GMCL1P1 / RFU, AEBP2 / Fold change vs veh, AEBP2 / RFU, SNHG1 /// SNORD22 /// SNORD25 /// SNORD26 /// SNORD27 /// SNORD28 /// SNORD29 /// SNORD31 / Fold change vs veh, SNHG1 /// SNORD22 /// SNORD25 /// SNORD26 /// SNORD27 /// SNORD28 /// SNORD29 /// SNORD31 / Fold change (Aza/veh), C12orf56 (ProbeSet 11735607_a_at) / Fold change (ACY-1035/veh), C12orf56 (ProbeSet 11735607_a_at) / Fold change (Aza/veh), FGFR1OP (ProbeSet 11751329_s_at) / Fold change (ACY-1035/veh), FGFR1OP (ProbeSet 11751329_s_at) / Fold change (Aza/veh), VPS36 (ProbeSet 11739960_a_at) / Fold change (ACY-1035/veh), VPS36 (ProbeSet 11739960_a_at) / RFU SYPL1 (11715823_x_at) / Fold change /veh SYPL1 (11715823_x_at) / RFU IGFBP7 (11715501_s_at) / Fold change /veh IGFBP7 (11715501_s_at) / RFU REEP3 (11722064_at) / Fold change /veh REEP3 (11722064_at) / RFU IGLL1 (11728026_x_at) / Fold change /veh IGLL1 (11728026_x_at): dose or concentration left out as unconfirmed
Conditions: MV-4-11 cells, 48 hours

## Nc1ncn([C@@H]2O[C@H](CO)[C@@H](O)[C@H]2O)c(=O)n1 [azacitidine]
  RFU LOC101060620 /// MAPK8IP1 (11723275_at): 10.14 RFU
